Measurements published in patent publication US12274898B2, “Substituted benzodiazepines as antibody-drug conjugates” (priority 2018, dated 2025).
Non-standard residues stand in square brackets, D forms with d. Residues, ends and D or L forms follow the SMILES beside them. Dolaproine = CO[C@@H]([C@@H]1CCCN1)[C@@H](C)C(=O)O; Dil = CC[C@H](C)[C@H](NC)[C@@H](CC(=O)O)OC; NMeV = CN[C@H](C(=O)O)C(C)C

Legend:
NCI-N87 cancer cells [1] = assay: In vitro analysis of benzodiazepine dimer derivatives, cell viability by MTT assay; assay type: cell-based; details: 6 days incubation, sigmoidal dose-response fit
Method: NCI-N87 cancer cells were seeded into 24-well plates at 25×10^3 cells/1 mL medium/well. The plates were incubated for 24 hours at 37° C. in a humidified 5% CO2-in-air atmosphere. Benzodiazepine dimer derivatives were dissolved initially in DMSO at a concentration of 10 mM. Serial dilutions were made in DMSO. The series of compound dilutions in DMSO were added to triplicate wells of 24-well plates at 5 μL per well. Three wells on each individual plate received 5 μL of DMSO without compound as controls. The final concentration of DMSO per well was 0.5%. The plates were incubated for 6 days at 37° C. in a humidified 5% CO2-in-air atmosphere. Cell viability was determined by the MTT assay and IC50 was generated using a sigmoidal dose-response nonlinear regression curve fit (GraphPad Software Inc.). Results thereof are shown in FIG. 1, FIG. 2, FIG. 3, and Table 2.

[2] = Solubility test: relative solubility by retention time on analytical HPLC; assay type: physicochemical; details: HPLC retention times under acidic (0.1% TFA); RP-C18, 5→95% ACN in water over 15 minutes; measure of relative solubility
Method: A solubility study was conducted to check the relative solubility of D-102, D-103, D-104, D-105, D-106, and D-107 on the retention time using analytical HPLC.

NCI-N87 cancer cells [3] = assay: In vitro analysis of protein-drug conjugates (cell cytotoxicity of antibody-drug conjugate), MTT assay; assay type: cell-based; details: ADCs, 6 days incubation
Method: NCI-N87cancer cells were seeded in 96-well plates at a density 5000 cells per well in 100 μL of medium, and cultured for 24 hours. The four compounds ADCs in Example 77 were treated by serial dilutions of 1:4 from 50 nM to 0.0003 nM, and the antibody drug conjugate T-DM1 was treated by serial dilutions of 1:4 from 50 nM to 0.0007 nM. The series of compound dilutions in DMSO were added to triplicate wells of […] at 5 μL per well. Three wells on each individual plate received 5 μL of DMSO without compound as controls. The final concentration of DMSO per well was 0.5%. The plates were incubated for 6 days at 37° C. in a humidified 5% CO2-in-air atmosphere. Cell viability was determined by the MTT assay and IC50 was generated using a sigmoidal dose-response nonlinear regression curve fit (GraphPad software Inc.)
Results of in vitro analysis of compounds T-1-AB, T-2-AB, T-3-AB, and T-4-AB, are shown in FIG. 4, FIG. 5, FIG. 6, FIG. 7, and Table 4.

Row | Compound | IC50 (NCI-N87 cancer cells [1]) | Retention time [2] | IC50 (NCI-N87 cancer cells [1]; Homo sapiens, 144 h) | IC50 (NCI-N87 cancer cells [3])
1 | CC[C@H](C)[C@@H]([C@@H](CC(=O)N1CCC[C@H]1[C@H](OC)[C@@H](C)C(=O)N[C@@H](Cc1ccccc1)C(=O)OC)OC)N(C)C(=O)[C@@H](NC(=O)[C@@H](NC)C(C)C)C(C)C [MMAF-OMe, reference compound] (H-[NMeV]V[Dil][Dolaproine]F-OMe) | 0.182 nM |  |  | 
2 | COc1cc2c(cc1OCc1cc(O)cc(COc3cc4c(cc3OC)C(=O)N3Cc5ncn(C)c5C[C@H]3C=N4)c1)N=C[C@@H]1Cc3ccccc3CN1C2=O [Compound D-105] |  | 8.05 min | 0.933 ± 0.344 nM | 
3 | COc1cc2c(cc1OCc1cc(COc3cc4c(cc3OC)C(=O)N3Cc5ncn(C)c5C[C@H]3C=N4)cc(CN(C)C)c1)N=C[C@@H]1Cc3c(ncn3C)CN1C2=O [Compound D-106] |  | 6.02 min | 28.9 ± 15 nM | 
4 | COc1cc2c(cc1OCc1cc(COc3cc4c(cc3OC)C(=O)N3Cc5cc(Br)sc5C[C@H]3C=N4)cc(CN(C)C)c1)N=C[C@@H]1Cc3sc(Br)cc3CN1C2=O [Compound D-109] |  |  | 0.025 ± 0.01 nM | 
5 | COc1cc2c(cc1OCc1cccc(COc3cc4c(cc3OC)C(=O)N3Cc5ccccc5C[C@H]3C=N4)c1)N=C[C@@H]1Cc3ccccc3CN1C2=O [Ref-2, reference compound] |  |  | 0.0089 ± 0.002 nM | 
6 | COc1cc2c(cc1OCc1cc(O)cc(COc3cc4c(cc3OC)C(=O)N3Cc5c(n(C)c[n+]5C)C[C@H]3C=N4)c1)N=C[C@@H]1Cc3c([n+](C)cn3C)CN1C2=O [Compound D-110] |  |  | 588 ± 223 nM | 
7 | COc1cc2c(cc1OCc1cc(COc3cc4c(cc3OC)C(=O)N3Cc5ccoc5C[C@H]3C=N4)cc(CN(C)C)c1)N=C[C@@H]1Cc3occc3CN1C2=O [Compound D-107] |  | 8.60 min | 0.013 ± 0.002 nM | 
8 | COc1cc2c(cc1OCc1cc(O)cc(COc3cc4c(cc3OC)C(=O)N3Cc5ccsc5C[C@H]3C=N4)c1)N=C[C@@H]1Cc3sccc3CN1C2=O [Compound D-103] |  | 9.75 min | 0.0472 ± 0.01 nM | 
9 | COc1cc2c(cc1OCc1cc(COc3cc4c(cc3OC)C(=O)N3Cc5ccsc5C[C@H]3C=N4)cc(CN(C)C)c1)N=C[C@@H]1Cc3sccc3CN1C2=O [Compound D-104] |  | 8.98 min | 0.013 ± 0.003 nM | 
10 | COc1cc2c(cc1OCc1cc(O)cc(COc3cc4c(cc3OC)C(=O)N3Cc5ccccc5C[C@H]3C=N4)c1)N=C[C@@H]1Cc3ccccc3CN1C2=O [Ref-3, reference compound] |  | 10.00 min | 0.025 ± 0.018 nM | 
11 | COc1cc2c(cc1OCc1cc(O)cc(COc3cc4c(cc3OC)C(=O)N3Cc5c(ncn5C)C[C@H]3C=N4)c1)N=C[C@@H]1Cc3ncn(C)c3CN1C2=O [Compound D-101] |  |  | 17.8 ± 6.6 nM | 
12 | COc1cc2c(cc1OCc1cc(O)cc(COc3cc4c(cc3OC)C(=O)N3Cc5ncn(C)c5C[C@H]3C=N4)c1)N=C[C@@H]1Cc3c(ncn3C)CN1C2=O [Compound D-102] |  | 6.50 min | 4.99 ± 0.785 nM | 
13 | T-DM1 |  |  |  | 0.213 ± 0.12 nM
14 | COc1ccc(C2=CN3C(=O)c4cc(OC)c(OCc5cc(COc6cc7c(cc6OC)C(=O)N6Cc8ccsc8C[C@H]6C=N7)cc(CN(C)C)c5)cc4N=C[C@@H]3C2)cc1 [Compound D-114] |  |  | 1.89 nM | 
15 | COc1cc2c(cc1OCc1cc(COc3cc4c(cc3OC)C(=O)N3Cc5ccccc5C[C@H]3C=N4)cc(CN(C)C)c1)N=C[C@@H]1Cc3ccccc3CN1C2=O [Ref-1, reference compound] |  | 9.30 min | 0.013 ± 0.003 nM | 
16 | COc1cc2c(cc1OCc1cc(COc3cc4c(cc3OC)C(=O)N3Cc5sccc5C[C@H]3C=N4)cc(CN(C)C)c1)N=C[C@@H]1Cc3ccsc3CN1C2=O [Compound D-108] |  |  | 0.008 ± 0.001 nM | 
